The structures appear in SMILES notation. Active and inactive are the calls of the source.

In general, AC50 refers to the concentration giving half of the maximal activity seen. What is called CC50 is the concentration that lowers cell viability or growth by half. As usually defined, the EC50 is the concentration giving half of the maximal effect. What is called Ki is a dissociation constant, usually derived from enzyme kinetics or from competition with a known ligand.

In experiment [1] the target is T1, Replicative DNA helicase DnaB (Mycobacterium tuberculosis, UniProt P9WMR3).
T1 sequence (P9WMR3 whole entry): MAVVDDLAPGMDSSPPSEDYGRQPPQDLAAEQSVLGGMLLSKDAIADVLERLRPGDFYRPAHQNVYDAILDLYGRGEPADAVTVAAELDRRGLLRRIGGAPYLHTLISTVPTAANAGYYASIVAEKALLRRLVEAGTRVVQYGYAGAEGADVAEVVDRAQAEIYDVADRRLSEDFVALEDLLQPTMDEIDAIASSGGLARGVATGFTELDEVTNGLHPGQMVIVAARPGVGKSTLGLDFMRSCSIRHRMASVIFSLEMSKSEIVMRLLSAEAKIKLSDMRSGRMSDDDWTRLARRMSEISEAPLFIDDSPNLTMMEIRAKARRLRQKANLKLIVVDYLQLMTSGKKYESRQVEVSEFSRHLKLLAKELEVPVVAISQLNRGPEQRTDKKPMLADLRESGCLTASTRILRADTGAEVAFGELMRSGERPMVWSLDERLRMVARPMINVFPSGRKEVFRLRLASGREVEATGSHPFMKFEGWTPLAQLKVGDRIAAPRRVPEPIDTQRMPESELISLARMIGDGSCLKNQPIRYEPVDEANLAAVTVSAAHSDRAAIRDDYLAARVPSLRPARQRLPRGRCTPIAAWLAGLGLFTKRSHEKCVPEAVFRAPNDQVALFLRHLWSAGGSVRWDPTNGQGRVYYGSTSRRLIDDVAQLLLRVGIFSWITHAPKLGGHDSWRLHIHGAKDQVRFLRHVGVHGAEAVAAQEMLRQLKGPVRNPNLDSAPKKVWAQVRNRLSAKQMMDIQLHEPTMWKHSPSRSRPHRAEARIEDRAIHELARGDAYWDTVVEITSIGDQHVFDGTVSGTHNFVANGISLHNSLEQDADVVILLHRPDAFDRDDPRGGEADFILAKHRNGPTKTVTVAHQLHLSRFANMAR
The experiment is described as follows: DnaB intein splicing inhibitors, dose response, biochemical, cell-free fluorescence (AID 449749). In kind it is functional.

Another experiment has as its system Vero. Briefly: Vero cell cytotoxicity, cytotoxicity control for flavivirus capping enzyme inhibitors (AID 588742). In kind it is functional. As to conditions: Chlorocebus sabaeus.
A short description of experiment [2]: inhibitors of intracellular T. cruzi replication, confirmation, NIH3T3 host cells, beta-gal luminescence (AID 2044).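 Note: intracellular parasites grown in NIH/3T3 mouse fibroblasts as host cells; luminescent beta-galactosidase reporter signal from transgenic T. cruzi replicating inside host cells; inhibitors lower the luminescence signal.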 In kind it is functional, cell-based.
A short description of experiment [3]: cytotoxicity toward NIH3T3 fibroblasts, dose response, counter-screen, cell-based, ATP luminescence, mouse fibroblasts (AID 2010).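 Note: cells exposed to compound for about 90 hours before reading.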 In kind it is functional.
Experiment [4] addresses Tyrosine-protein kinase Lck (Homo sapiens, UniProt P06239). In kind it is functional.
Experiment [5] has as its target Death-associated protein kinase 3 (Homo sapiens, UniProt O43293). In kind it is functional.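 Note: measured as one member of a kinome-wide profiling panel.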
For experiment [6], the target named is Mitogen-activated protein kinase 8 (Homo sapiens, UniProt P45983). In kind it is functional.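 Note: value comes from one member of a kinome-wide kinase profiling panel.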
The target in experiment [7] is Serine/threonine-protein kinase PAK 4 (Homo sapiens, UniProt O96013). In kind it is functional.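 Note: value obtained within a kinome profiling panel in which PAK4 was one of the panel members.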
For experiment [8], the target named is Fibroblast growth factor receptor 1 (Homo sapiens, UniProt P11362). In kind it is functional.
The target in experiment [9] is Mitogen-activated protein kinase 9 (Homo sapiens, UniProt P45984). In kind it is functional.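 Note: value from a kinome panel profiling assay, MAPK9 panel entry.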
For experiment [10], the target named is Serine/threonine-protein kinase TAO1 (Homo sapiens, UniProt Q7L7X3). In kind it is functional.
Experiment [11] deals with High affinity nerve growth factor receptor (Homo sapiens, UniProt P04629). In kind it is functional.
Experiment [12] deals with Receptor-type tyrosine-protein kinase FLT3 (Homo sapiens, UniProt P36888). In kind it is functional.
In experiment [13] the target is Vascular endothelial growth factor receptor 2 (Homo sapiens, UniProt P35968). In kind it is functional.
Experiment [14] has as its target Dual specificity tyrosine-phosphorylation-regulated kinase 1B (Homo sapiens, UniProt Q9Y463). Briefly: Navigating the Kinome. Panel member name: DYRK1B. In kind it is functional.
Experiment [15] addresses T2, cAMP-dependent protein kinase catalytic subunit PRKX (Homo sapiens, UniProt P51817).
T2 sequence (P51817 whole entry): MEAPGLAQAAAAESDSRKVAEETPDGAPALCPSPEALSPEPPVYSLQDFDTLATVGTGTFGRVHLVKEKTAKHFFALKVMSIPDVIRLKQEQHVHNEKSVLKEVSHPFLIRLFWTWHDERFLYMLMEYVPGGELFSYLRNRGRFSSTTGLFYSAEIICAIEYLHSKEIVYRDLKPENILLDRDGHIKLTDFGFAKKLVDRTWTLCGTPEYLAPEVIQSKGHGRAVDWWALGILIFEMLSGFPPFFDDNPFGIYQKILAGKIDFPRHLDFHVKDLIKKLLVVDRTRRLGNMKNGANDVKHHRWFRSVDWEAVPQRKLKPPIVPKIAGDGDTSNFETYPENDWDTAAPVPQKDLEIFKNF
In kind it is functional.

Experiment [16] has as its target Leucine-rich repeat serine/threonine-protein kinase 2 (Homo sapiens, UniProt Q5S007). In kind it is functional.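 Note: value from a broad kinome-wide panel profiling study in which LRRK2 was one of the kinases tested.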
Experiment [17] addresses Cyclin-dependent kinase 8 (Homo sapiens, UniProt P49336). The experiment is described as follows: Navigating the Kinome. Panel member name: CDK8. In kind it is functional.
Experiment [18] concerns the target cAMP-dependent protein kinase catalytic subunit alpha (Homo sapiens, UniProt P17612). In kind it is functional.

Sequence of Vascular endothelial growth factor receptor 2 (P35968 whole entry): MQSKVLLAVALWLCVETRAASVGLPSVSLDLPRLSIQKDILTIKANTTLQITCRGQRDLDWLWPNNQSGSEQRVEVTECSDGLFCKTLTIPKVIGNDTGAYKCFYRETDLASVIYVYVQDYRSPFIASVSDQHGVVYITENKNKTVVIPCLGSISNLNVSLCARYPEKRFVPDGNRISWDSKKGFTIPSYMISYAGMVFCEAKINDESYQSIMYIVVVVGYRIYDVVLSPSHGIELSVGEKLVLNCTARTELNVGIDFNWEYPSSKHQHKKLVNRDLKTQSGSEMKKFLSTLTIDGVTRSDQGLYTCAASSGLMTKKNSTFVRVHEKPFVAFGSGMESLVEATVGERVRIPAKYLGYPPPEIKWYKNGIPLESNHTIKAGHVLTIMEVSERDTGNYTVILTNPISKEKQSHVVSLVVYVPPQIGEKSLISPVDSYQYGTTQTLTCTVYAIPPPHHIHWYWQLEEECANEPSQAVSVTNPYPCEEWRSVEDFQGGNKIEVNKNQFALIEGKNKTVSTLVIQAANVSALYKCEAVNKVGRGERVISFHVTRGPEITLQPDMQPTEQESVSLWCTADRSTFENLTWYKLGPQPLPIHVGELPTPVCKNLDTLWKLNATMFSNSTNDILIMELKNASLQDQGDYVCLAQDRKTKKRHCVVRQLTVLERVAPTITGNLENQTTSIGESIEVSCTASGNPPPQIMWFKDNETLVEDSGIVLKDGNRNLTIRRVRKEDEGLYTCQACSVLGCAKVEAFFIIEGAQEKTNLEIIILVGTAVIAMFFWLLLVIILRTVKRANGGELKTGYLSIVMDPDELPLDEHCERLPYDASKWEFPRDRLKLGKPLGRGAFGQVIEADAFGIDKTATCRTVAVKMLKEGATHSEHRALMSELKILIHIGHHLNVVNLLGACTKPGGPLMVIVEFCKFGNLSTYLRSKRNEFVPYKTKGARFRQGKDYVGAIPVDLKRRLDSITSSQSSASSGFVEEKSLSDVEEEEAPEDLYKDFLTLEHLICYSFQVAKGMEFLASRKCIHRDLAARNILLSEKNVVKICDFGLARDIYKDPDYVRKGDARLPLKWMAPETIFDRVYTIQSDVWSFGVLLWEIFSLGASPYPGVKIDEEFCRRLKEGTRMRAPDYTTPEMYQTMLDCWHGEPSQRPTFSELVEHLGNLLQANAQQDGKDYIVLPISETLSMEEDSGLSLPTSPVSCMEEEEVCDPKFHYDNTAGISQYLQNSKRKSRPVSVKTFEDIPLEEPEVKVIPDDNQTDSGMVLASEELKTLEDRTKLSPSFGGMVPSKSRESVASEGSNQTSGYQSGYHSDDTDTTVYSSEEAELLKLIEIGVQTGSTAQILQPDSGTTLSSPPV
Sequence of Dual specificity tyrosine-phosphorylation-regulated kinase 1B (Q9Y463 whole entry): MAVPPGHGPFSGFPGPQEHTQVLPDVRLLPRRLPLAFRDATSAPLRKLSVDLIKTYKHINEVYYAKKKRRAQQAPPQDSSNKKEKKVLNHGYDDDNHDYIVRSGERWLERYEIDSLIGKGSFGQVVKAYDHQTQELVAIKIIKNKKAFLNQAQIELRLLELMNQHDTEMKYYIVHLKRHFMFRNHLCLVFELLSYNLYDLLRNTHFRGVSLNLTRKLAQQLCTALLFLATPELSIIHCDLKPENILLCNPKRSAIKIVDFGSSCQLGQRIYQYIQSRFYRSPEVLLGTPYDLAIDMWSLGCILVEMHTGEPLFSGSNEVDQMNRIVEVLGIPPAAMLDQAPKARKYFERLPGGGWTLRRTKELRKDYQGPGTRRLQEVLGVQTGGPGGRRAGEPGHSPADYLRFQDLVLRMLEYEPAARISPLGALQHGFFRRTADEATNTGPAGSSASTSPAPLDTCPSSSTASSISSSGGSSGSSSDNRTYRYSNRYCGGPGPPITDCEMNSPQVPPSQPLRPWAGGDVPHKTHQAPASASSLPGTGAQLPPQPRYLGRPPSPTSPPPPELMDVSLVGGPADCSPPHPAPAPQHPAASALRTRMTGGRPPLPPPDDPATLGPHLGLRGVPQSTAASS
Sequence of Cyclin-dependent kinase 8 (P49336 whole entry): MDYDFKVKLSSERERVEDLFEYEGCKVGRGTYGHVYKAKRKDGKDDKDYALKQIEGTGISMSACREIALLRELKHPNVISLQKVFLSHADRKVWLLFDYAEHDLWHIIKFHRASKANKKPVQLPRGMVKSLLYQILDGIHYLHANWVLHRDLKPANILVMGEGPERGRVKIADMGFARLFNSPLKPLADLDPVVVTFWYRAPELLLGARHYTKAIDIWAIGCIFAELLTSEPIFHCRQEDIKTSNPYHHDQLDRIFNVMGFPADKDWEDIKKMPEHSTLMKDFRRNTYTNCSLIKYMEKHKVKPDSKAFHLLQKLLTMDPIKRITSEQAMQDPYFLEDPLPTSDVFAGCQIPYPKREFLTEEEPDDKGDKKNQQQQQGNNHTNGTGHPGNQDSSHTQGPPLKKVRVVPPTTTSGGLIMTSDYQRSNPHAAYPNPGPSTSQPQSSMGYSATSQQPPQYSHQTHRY
Sequence of Serine/threonine-protein kinase PAK 4 (O96013 whole entry): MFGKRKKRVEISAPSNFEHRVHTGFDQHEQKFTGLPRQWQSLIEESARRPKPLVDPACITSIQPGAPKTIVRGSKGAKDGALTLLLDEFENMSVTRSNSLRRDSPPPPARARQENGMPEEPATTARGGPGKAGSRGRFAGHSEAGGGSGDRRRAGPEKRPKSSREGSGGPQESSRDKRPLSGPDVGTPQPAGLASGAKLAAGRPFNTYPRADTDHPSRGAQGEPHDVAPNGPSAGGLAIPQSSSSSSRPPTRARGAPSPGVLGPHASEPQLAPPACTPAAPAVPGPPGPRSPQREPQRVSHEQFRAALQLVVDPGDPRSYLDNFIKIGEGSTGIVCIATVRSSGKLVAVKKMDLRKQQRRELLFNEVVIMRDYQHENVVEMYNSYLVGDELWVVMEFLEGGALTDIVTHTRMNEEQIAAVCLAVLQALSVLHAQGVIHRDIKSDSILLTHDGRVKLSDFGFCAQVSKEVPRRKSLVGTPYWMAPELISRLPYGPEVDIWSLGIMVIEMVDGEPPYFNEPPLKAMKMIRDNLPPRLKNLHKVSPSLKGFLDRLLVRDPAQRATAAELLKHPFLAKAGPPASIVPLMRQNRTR
Sequence of High affinity nerve growth factor receptor (P04629 whole entry): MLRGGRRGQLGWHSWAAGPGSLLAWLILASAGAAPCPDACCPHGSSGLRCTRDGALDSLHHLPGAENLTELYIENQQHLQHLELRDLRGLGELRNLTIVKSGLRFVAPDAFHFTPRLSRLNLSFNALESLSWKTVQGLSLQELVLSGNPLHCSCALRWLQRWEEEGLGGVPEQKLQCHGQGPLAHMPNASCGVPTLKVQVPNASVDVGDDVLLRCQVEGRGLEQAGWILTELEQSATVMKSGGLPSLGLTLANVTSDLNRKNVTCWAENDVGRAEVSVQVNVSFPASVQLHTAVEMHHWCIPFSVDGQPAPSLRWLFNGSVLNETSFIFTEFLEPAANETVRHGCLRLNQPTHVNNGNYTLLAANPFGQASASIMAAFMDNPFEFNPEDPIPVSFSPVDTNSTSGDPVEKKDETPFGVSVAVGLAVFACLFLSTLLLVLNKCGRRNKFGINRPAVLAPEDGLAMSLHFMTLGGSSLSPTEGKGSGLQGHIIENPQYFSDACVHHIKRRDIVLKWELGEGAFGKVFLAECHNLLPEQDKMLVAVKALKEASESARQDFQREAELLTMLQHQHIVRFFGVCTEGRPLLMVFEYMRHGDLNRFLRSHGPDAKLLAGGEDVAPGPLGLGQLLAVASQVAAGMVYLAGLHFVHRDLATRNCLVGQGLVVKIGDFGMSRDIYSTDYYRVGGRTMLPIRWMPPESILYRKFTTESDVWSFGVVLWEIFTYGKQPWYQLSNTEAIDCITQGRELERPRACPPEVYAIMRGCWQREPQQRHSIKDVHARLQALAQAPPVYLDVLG
Sequence of Mitogen-activated protein kinase 8 (P45983 whole entry): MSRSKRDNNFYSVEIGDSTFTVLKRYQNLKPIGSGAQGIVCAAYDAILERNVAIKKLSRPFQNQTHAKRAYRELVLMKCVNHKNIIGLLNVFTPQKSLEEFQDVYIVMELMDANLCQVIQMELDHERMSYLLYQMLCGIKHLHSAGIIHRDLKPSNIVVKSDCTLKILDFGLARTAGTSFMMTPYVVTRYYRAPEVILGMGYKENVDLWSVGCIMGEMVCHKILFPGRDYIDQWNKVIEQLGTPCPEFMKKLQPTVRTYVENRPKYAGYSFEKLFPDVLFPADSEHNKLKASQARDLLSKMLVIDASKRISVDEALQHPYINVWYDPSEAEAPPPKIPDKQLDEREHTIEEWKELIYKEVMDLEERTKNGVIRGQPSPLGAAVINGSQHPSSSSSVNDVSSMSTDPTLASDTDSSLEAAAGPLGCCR
Sequence of Death-associated protein kinase 3 (O43293 whole entry): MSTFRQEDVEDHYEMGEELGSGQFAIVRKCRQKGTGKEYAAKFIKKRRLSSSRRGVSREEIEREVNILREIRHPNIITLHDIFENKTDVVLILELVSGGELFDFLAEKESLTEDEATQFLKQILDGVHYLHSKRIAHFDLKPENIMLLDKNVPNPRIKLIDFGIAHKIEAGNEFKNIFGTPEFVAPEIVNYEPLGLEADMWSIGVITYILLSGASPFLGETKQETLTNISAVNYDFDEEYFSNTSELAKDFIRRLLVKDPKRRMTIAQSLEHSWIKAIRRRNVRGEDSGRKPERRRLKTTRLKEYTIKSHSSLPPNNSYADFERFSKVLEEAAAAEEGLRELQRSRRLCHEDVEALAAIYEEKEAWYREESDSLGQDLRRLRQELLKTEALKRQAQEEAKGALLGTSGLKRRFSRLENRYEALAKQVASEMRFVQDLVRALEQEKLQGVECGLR

As to `O=C(NC1=C(NC2CCS(=O)(=O)C2)C(=O)c2ccccc2C1=O)c1ccccc1` (centres undefined), the AC50 in [1] is 816 nM (active). In addition, the cytotoxic concentration (CC50) with Vero was 7480 nM (active).
Consider `CCCC(=O)NC(c1ccc(N(C)C)cc1)c1ccc2cccnc2c1O` (centres undefined), for which the EC50 in [2] is 480 nM (active); in experiment [3], 729 nM (active).
As to `O=C1NC(=O)C(c2c[nH]c3ccccc23)=C1c1nc(N2CCNCC2)nc2ccccc12`, the Ki in experiment [4] was > 6310 nM (inactive); in [5] it was 631 nM (active); in experiment [6], > 5010 nM (inactive); in experiment [7], 2000 nM (active); in experiment [8], > 2510 nM (inactive); in experiment [9], > 3980 nM (inactive). Moreover, the Ki in experiment [10] was 1000 nM (active); in experiment [11] it was 2510 nM (active); in experiment [12], > 3160 nM (inactive); in experiment [13], 794 nM (active); in experiment [14], > 2000 nM (inactive); in [15] it was > 2000 nM (inactive). Also, the results for the inhibition constant Ki in experiment [16], in experiment [17] and in experiment [18] were 398 nM (active), > 3980 nM (inactive) and 31.6 nM (active), respectively.

Values taken from ChEMBL document CHEMBL1201862, “PubChem BioAssay data set” (2004).
